Test results: US11000033B2, “Ketone or oxime compound, and herbicide” (NISSAN CHEMICAL CORPORATION, priority 2014, dated 2021)

Legend:
Type in all cases: in vivo
[1] = test system: Echinochloa oryzacola Vasing.; experiment: Test Example 1: herbicidal activity, application before weed generation in submerged conditions (symbol A); details: application herbicide amount 320 g/ha
How it was run: (§1)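 In a flooded pot test with alluvial soil, the emulsion-formulated compound was diluted with water to a predetermined amount and applied to the floodwater immediately on the sowing day. Pots were held in a greenhouse at 25–30 °C for 3 weeks before each weed was rated.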

Monochoria vaginalis = experiment: Test Example 1: herbicidal activity, application before weed generation in submerged conditions (symbol C); details: application herbicide amount 320 g/ha
How it was run: as §1

Leptochloa chinensis = experiment: Test Example 3: herbicidal effect by foliage application, Wagner pot (symbol D); details: application herbicide amount 320 g/ha; for D (Leptochloa chinensis) herbicidal effect grade: Table 24
How it was run: (§2)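 Alluvial soil was flooded to a depth of 0.1–0.5 cm, seeded with the weeds and rice, and kept in a greenhouse at 25–30 °C. After 14 days of growth, the foliage received a small-sprayer application of emulsion diluted to the intended rate; injury was rated at 3 weeks.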

Cyperus difformis = experiment: Test Example 3: herbicidal effect by foliage application, Wagner pot (symbol E); details: application herbicide amount 320 g/ha; for E herbicidal effect grade: Table 24
How it was run: as §2

Lolium multiflorum Lam. = experiment: Test Example 4: herbicidal effect by soil treatment (symbol K); details: for Herbicidal effect grade, K: Lolium multiflorum Lam.: application herbicide amount 320 g/ha
How it was run: (§3)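 Seeds were sown in sterilized diluvial soil, covered with about 1.5 cm of soil, and the soil surface was sprayed with a water-diluted emulsion of the compound at a predetermined rate. Plants grew in a greenhouse at 25° C. to 30° C.; effects were scored visually 3 weeks after application.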

Amaranthus retroflexus = experiment: Test Example 4: herbicidal effect by soil treatment (symbol N); details: for Herbicidal effect grade, N: Amaranthus retroflexus: application herbicide amount 320 g/ha
How it was run: as §3

Chenopodium album [2] = experiment: Test Example 4: herbicidal effect by soil treatment (symbol O); details: for Herbicidal effect grade, O: Chenopodium album: application herbicide amount 320 g/ha
How it was run: as §3

Galium spurium = experiment: Test Example 4: herbicidal effect by soil treatment (symbol Q); details: for Herbicidal effect grade, Q: Galium spurium: application herbicide amount 320 g/ha
How it was run: as §3

rice = experiment: Test Example 4: effect on crop by soil treatment (symbol b); details: for Effect on crop grade, b: directly sowed rice plant: application herbicide amount 320 g/ha
How it was run: (§4)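 Diluvial soil (sterilized) in boxes; seeds placed spot-wise alongside weed species; ~1.5 cm covering soil. Greenhouse, 25–30° C.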

wheat [3] = experiment: Test Example 4: effect on crop by soil treatment (symbol e); details: for Effect on crop grade, e: wheat: application herbicide amount 320 g/ha
How it was run: as §4

beet = experiment: Test Example 4: effect on crop by soil treatment (symbol f); details: for Effect on crop grade, f: beet: application herbicide amount 320 g/ha
How it was run: as §4

rapeseed = experiment: Test Example 4: effect on crop by soil treatment (symbol g); details: for Effect on crop grade, g: rapeseed: application herbicide amount 320 g/ha
How it was run: as §4

Avena fatua = experiment: Test Example 5: herbicidal effect by foliage application, plastic box (symbol I); details: 320 g/ha, 3 weeks after application
How it was run: (§5)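 Emulsion formulation, diluted with water to the intended rate, was applied uniformly to leaves by small sprayer. Recipients were 14-day greenhouse-grown seedlings (25° C. to 30° C.). Assessment followed at 3 weeks.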

Apera spica-venti = experiment: Test Example 5: herbicidal effect by foliage application, plastic box (symbol L); details: 320 g/ha, 3 weeks after application
How it was run: as §5

Abutilon theophrasti = experiment: Test Example 5: herbicidal effect by foliage application, plastic box (symbol M); details: 320 g/ha, 3 weeks after application
How it was run: as §5

Chenopodium album [4] = experiment: Test Example 5: herbicidal effect by foliage application, plastic box (symbol O); details: 320 g/ha, 3 weeks after application
How it was run: as §5

Stellaria media = experiment: Test Example 5: herbicidal effect by foliage application, plastic box (symbol P); details: 320 g/ha, 3 weeks after application
How it was run: as §5

rice plant = experiment: Test Example 5: effect on crop by foliage application, plastic box (symbol b); details: 320 g/ha, 3 weeks after application
How it was run: (§6)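 Crop seed is sown alongside grass and broadleaf weed species in spots in sterilized diluvial soil, then covered to a depth of about 1.5 cm. Plants grow in a greenhouse kept at 25° C. to 30° C.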

wheat [5] = experiment: Test Example 5: effect on crop by foliage application, plastic box (symbol e); details: 320 g/ha, 3 weeks after application
How it was run: as §6

Structure (SMILES) | A (Echinochloa oryzacola Vasing.) herbicidal effect grade [1] | C (Monochoria vaginalis) herbicidal effect grade (Monochoria vaginalis) | D (Leptochloa chinensis) herbicidal effect grade (Leptochloa chinensis) | E herbicidal effect grade (Cyperus difformis) | Herbicidal effect grade, K: Lolium multiflorum Lam. (Lolium multiflorum Lam.) | Herbicidal effect grade, N: Amaranthus retroflexus (Amaranthus retroflexus) | Herbicidal effect grade, O: Chenopodium album (Chenopodium album [2]) | Herbicidal effect grade, Q: Galium spurium (Galium spurium) | Effect on crop grade, b: directly sowed rice plant (rice) | Effect on crop grade, e: wheat (wheat [3]) | Effect on crop grade, f: beet (beet) | Effect on crop grade, g: rapeseed (rapeseed) | I: Avena fatua, herbicidal effect grade (Avena fatua) | L: Apera spica-venti, herbicidal effect grade (Apera spica-venti) | M: Abutilon theophrasti, herbicidal effect grade (Abutilon theophrasti) | O: Chenopodium album, herbicidal effect grade (Chenopodium album [4]) | P: Stellaria media, herbicidal effect grade (Stellaria media) | b: directly sowed rice plant, effect on crop grade (rice plant) | e: wheat, effect on crop grade (wheat [5]) | further results
CC#Cc1cc(C)c(C2=C(O)CC(CC(=NOC)C3CC3)C2=O)c(C)c1 (stereo not shown) [9-008] | 5 (Herbicidal ratio of 90% or more (almost completely withered)) | 4 (Herbicidal ratio of 70% or higher and lower than 90%) | 5 (Herbicidal ratio of 90% or more (almost completely withered)) | 5 (Herbicidal ratio of 90% or more (almost completely withered)) | 5 (Herbicidal ratio of 90% or more (almost completely withered)) | 4 (Herbicidal ratio of 70% or higher and lower than 90%) | 0 (Herbicidal ratio of 5% or lower (almost no effect)) | 0 (Herbicidal ratio of 5% or lower (almost no effect)) | 5 (Herbicidal ratio of 90% or more (almost completely withered)) | 5 (Herbicidal ratio of 90% or more (almost completely withered)) | 0 (Herbicidal ratio of 5% or lower (almost no effect)) | 4 (Herbicidal ratio of 70% or higher and lower than 90%) | 4 (Herbicidal ratio of 70% or higher and lower than 90%) | 5 (Herbicidal ratio of 90% or more (almost completely withered)) | 4 (Herbicidal ratio of 70% or higher and lower than 90%) | 3 (Herbicidal ratio of 40% or higher and lower than 70%) | 4 (Herbicidal ratio of 70% or higher and lower than 90%) | 5 (Herbicidal ratio of 90% or more (almost completely withered)) | 5 (Herbicidal ratio of 90% or more (almost completely withered)) | –
COC(=O)c1ccc(CON=C(C)CC2CC(O)=C(c3c(C)cc(C)cc3C)C2=O)cc1 (stereo not shown) [1-118] | – | – | – | – | – | – | – | – | – | – | – | – | – | – | – | – | – | – | – | Herbicidal effect grade, A: Echinochloa oryzacola Vasing. [1]: 5 (Herbicidal ratio of 90% or more (almost completely withered)); Herbicidal effect grade, C: Monochoria vaginalis (Monochoria vaginalis): 2 (Herbicidal ratio of 20% or higher and lower than 40%); herbicidal effect on D (Leptochloa chinensis), grade 0-5 (Leptochloa chinensis): 0 (Herbicidal ratio of 5% or lower (almost no effect)); herbicidal effect on E, grade 0-5 (Cyperus difformis): 0 (Herbicidal ratio of 5% or lower (almost no effect)); K: Lolium multiflorum Lam., herbicidal effect grade (Lolium multiflorum Lam.; 320 g/ha): 3 (Herbicidal ratio of 40% or higher and lower than 70%); N: Amaranthus retroflexus, herbicidal effect grade (Amaranthus retroflexus; 320 g/ha): 0 (Herbicidal ratio of 5% or lower (almost no effect)); O: Chenopodium album, herbicidal effect grade (Chenopodium album [2]; 320 g/ha): 0 (Herbicidal ratio of 5% or lower (almost no effect)); Q: Galium spurium, herbicidal effect grade (Galium spurium; 320 g/ha): 0 (Herbicidal ratio of 5% or lower (almost no effect)); b: directly sowed rice plant, effect grade on crop (rice; 320 g/ha): 5 (Herbicidal ratio of 90% or more (almost completely withered)); e: wheat, effect grade on crop (wheat [3]; 320 g/ha): 0 (Herbicidal ratio of 5% or lower (almost no effect)); f: beet, effect grade on crop (beet; 320 g/ha): 0 (Herbicidal ratio of 5% or lower (almost no effect)); g: rapeseed, effect grade on crop (rapeseed; 320 g/ha): 1 (Herbicidal ratio of 5% or higher and lower than 20%); I: Avena fatua, herbicidal effect (criteria 0-5) (Avena fatua): 3 (Herbicidal ratio of 40% or higher and lower than 70%); L: Apera spica-venti, herbicidal effect (criteria 0-5) (Apera spica-venti): 3 (Herbicidal ratio of 40% or higher and lower than 70%); M: Abutilon theophrasti, herbicidal effect (criteria 0-5) (Abutilon theophrasti): 0 (Herbicidal ratio of 5% or lower (almost no effect)); O: Chenopodium album, herbicidal effect (criteria 0-5) (Chenopodium album [4]): 3 (Herbicidal ratio of 40% or higher and lower than 70%); P: Stellaria media, herbicidal effect (criteria 0-5) (Stellaria media): 3 (Herbicidal ratio of 40% or higher and lower than 70%); b: directly sowed rice plant, effect on crop (criteria 0-5) (rice plant): 4 (Herbicidal ratio of 70% or higher and lower than 90%); e: wheat, effect on crop (criteria 0-5) (wheat [5]): 0 (Herbicidal ratio of 5% or lower (almost no effect))
CON=C(C)CC1C(O)=C(c2c(C)cc(C)cc2C)C(=O)C1C (mixture of isomers) [12-002] | 5 (Herbicidal ratio of 90% or more (almost completely withered)) | 2 (Herbicidal ratio of 20% or higher and lower than 40%) | 5 (Herbicidal ratio of 90% or more (almost completely withered)) | 5 (Herbicidal ratio of 90% or more (almost completely withered)) | 5 (Herbicidal ratio of 90% or more (almost completely withered)) | 0 (Herbicidal ratio of 5% or lower (almost no effect)) | 0 (Herbicidal ratio of 5% or lower (almost no effect)) | 0 (Herbicidal ratio of 5% or lower (almost no effect)) | 4 (Herbicidal ratio of 70% or higher and lower than 90%) | 0 (Herbicidal ratio of 5% or lower (almost no effect)) | 0 (Herbicidal ratio of 5% or lower (almost no effect)) | 1 (Herbicidal ratio of 5% or higher and lower than 20%) | 5 (Herbicidal ratio of 90% or more (almost completely withered)) | 5 (Herbicidal ratio of 90% or more (almost completely withered)) | 1 (Herbicidal ratio of 5% or higher and lower than 20%) | 2 (Herbicidal ratio of 20% or higher and lower than 40%) | 4 (Herbicidal ratio of 70% or higher and lower than 90%) | 5 (Herbicidal ratio of 90% or more (almost completely withered)) | 2 (Herbicidal ratio of 20% or higher and lower than 40%) | –
Cc1cc(Br)cc(C)c1C1=C(O)CC(CC(=O)C(C)C)C1=O (racemic) [10-003] | 1 (Herbicidal ratio of 5% or higher and lower than 20%) | 0 (Herbicidal ratio of 5% or lower (almost no effect)) | 4 (Herbicidal ratio of 70% or higher and lower than 90%) | 0 (Herbicidal ratio of 5% or lower (almost no effect)) | 4 (Herbicidal ratio of 70% or higher and lower than 90%) | 0 (Herbicidal ratio of 5% or lower (almost no effect)) | 0 (Herbicidal ratio of 5% or lower (almost no effect)) | 0 (Herbicidal ratio of 5% or lower (almost no effect)) | 4 (Herbicidal ratio of 70% or higher and lower than 90%) | 0 (Herbicidal ratio of 5% or lower (almost no effect)) | 0 (Herbicidal ratio of 5% or lower (almost no effect)) | 0 (Herbicidal ratio of 5% or lower (almost no effect)) | 3 (Herbicidal ratio of 40% or higher and lower than 70%) | 3 (Herbicidal ratio of 40% or higher and lower than 70%) | 0 (Herbicidal ratio of 5% or lower (almost no effect)) | 0 (Herbicidal ratio of 5% or lower (almost no effect)) | 0 (Herbicidal ratio of 5% or lower (almost no effect)) | 4 (Herbicidal ratio of 70% or higher and lower than 90%) | 0 (Herbicidal ratio of 5% or lower (almost no effect)) | –
